In ChEMBL document CHEMBL1129037 (J Med Chem, 1996):
pIC50: −log10 of the molar value.

How the values were obtained:
[1] = biological target: T1, Sodium-dependent dopamine transporter (Rattus norvegicus, UniProt P23977); assay: Inhibitory activity against [3H]dopamine uptake in rat striatal tissue; type: functional, tissue-based, Striatum
[2] = biological target: Sodium-dependent dopamine transporter (Rattus norvegicus) (UniProt P23977)
Description: The compound Hill coefficient value determined for WIN-Binding

[3] = biological target: T1, Sodium-dependent dopamine transporter; assay: Inhibition of [3H]WIN-35428 binding to dopamine transporter using rat striatal tissue; type: tissue-based, Striatum

Sequence of Sodium-dependent dopamine transporter (Rattus norvegicus) (P23977 whole entry): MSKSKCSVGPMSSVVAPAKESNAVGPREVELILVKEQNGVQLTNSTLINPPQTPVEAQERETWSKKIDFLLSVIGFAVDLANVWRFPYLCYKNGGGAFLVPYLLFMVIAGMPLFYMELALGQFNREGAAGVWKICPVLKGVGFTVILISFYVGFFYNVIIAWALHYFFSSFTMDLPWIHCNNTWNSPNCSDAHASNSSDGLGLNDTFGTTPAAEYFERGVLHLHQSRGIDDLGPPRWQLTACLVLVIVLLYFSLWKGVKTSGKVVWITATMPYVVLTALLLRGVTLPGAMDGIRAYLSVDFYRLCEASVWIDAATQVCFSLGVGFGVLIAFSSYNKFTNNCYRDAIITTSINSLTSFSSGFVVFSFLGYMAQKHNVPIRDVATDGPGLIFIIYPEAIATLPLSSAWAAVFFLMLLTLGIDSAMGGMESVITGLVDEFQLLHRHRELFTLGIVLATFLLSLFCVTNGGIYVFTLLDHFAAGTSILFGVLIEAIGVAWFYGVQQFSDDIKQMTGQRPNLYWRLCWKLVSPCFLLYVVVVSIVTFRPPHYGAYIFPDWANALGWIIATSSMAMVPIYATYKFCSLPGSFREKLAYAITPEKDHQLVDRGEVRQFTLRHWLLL
T1 sequence (P23977 whole entry): as above

Compound	pIC50 [1]	Hill coefficient [2]	pIC50 [3]
COC(=O)[C@@H](c1cccc(C)c1)[C@@H]1CCCCN1	7.00	1.01	7.67
COC(=O)[C@@H](c1cccc(Cl)c1)[C@@H]1CCCCN1	7.64	0.95	8.29
COC(=O)[C@@H](c1cccc(Br)c1)[C@@H]1CCCCN1	7.89	1.14	8.38
COC(=O)[C@@H](c1ccc(N)cc1)[C@@H]1CCCCN1	6.94	0.96	7.46
COC(=O)[C@@H](c1ccc(O)cc1)[C@@H]1CCCCN1	6.47	1.07	7.01
COC(=O)[C@@H](c1ccccc1)[C@@H]1CCCCN1	–	0.9	–
COC(=O)[C@@H](c1ccc(C)cc1)[C@@H]1CCCCN1	6.90	1.05	7.48
COC(=O)[C@@H](c1ccccc1O)[C@@H]1CCCCN1	4.45	1.04	–
COC(=O)[C@@H](c1ccccc1F)[C@@H]1CCCCN1	5.54	0.9	5.85
COC(=O)[C@@H](c1ccccc1Br)[C@@H]1CCCCN1	5.47	0.93	5.73
COC(=O)[C@@H](c1ccccc1OC)[C@@H]1CCCCN1	4.09	0.94	–
COC(=O)C(c1ccccc1Cl)C1CCCCN1 (single isomer, unassigned)	4.21	0.92	4.28
COC(=O)[C@@H](c1ccccc1Cl)[C@@H]1CCCCN1	5.58	0.98	5.71
COC(=O)[C@@H](c1ccc(C(C)(C)C)cc1)[C@@H]1CCCCN1	–	1.12	–
COC(=O)[C@@H](c1ccc(OC)c(OC)c1)[C@@H]1CCCCN1	5.75	1.12	6.09
COC(=O)[C@@H](c1ccc(Br)cc1)[C@@H]1CCCCN1	7.58	1.15	8.16
COC(=O)[C@@H](c1ccc(F)cc1)[C@@H]1CCCCN1	6.85	0.97	7.46
COC(=O)[C@@H](c1ccc(Cl)c(Cl)c1)[C@@H]1CCCCN1	8.15	2.07	8.28
COC(=O)[C@@H](c1ccc([N+](=O)[O-])cc1)[C@@H]1CCCCN1	5.79	1.17	6.31
COC(=O)[C@@H](c1cccc(F)c1)[C@@H]1CCCCN1	6.80	0.85	7.39
COC(=O)[C@@H](c1ccc(I)cc1)[C@@H]1CCCCN1	7.19	1.1	7.85
COC(=O)C(c1cccc(Cl)c1)C1CCCCN1 (single isomer, unassigned)	5.81	1.03	6.42
COC(=O)[C@@H](c1cccc(N)c1)[C@@H]1CCCCN1	6.24	1.06	6.58
COC(=O)C(c1ccccc1OC)C1CCCCN1 (single isomer, unassigned)	3.54	0.87	3.86
COC(=O)[C@H]1[C@@H](OC(=O)c2ccccc2)C[C@@H]2CC[C@H]1N2C	–	1.03	–
COC(=O)C(c1ccc(C(C)(C)C)cc1)C1CCCCN1 (single isomer, unassigned)	–	1.1	–
COC(=O)[C@@H](c1ccc(Cl)cc1)[C@@H]1CCCCN1	7.13	1.17	7.69
COC(=O)C(c1ccccc1Br)C1CCCCN1 (single isomer, unassigned)	4.23	1.06	4.42
COC(=O)[C@@H](c1cccc(O)c1)[C@@H]1CCCCN1	6.10	1.09	6.49
